For the assay, the system named is mouth ulcers. The experiment in a line: tests of cobalamin forms for treatment of mouth ulcers. Type of assay: in vivo. The settings on record: compared with other cobalamin forms (cyanocobalamin, hydroxocobalamin); tests not described.

Structures are written as SMILES.

Take `C/C1=C2/[N-][C@H]([C@H](CC(N)=O)[C@@]2(C)CCC(=O)NC[C@@H](C)OP(=O)([O-])O[C@H]2[C@@H](O)[C@@H](n3cnc4cc(C)c(C)cc43)O[C@@H]2CO)[C@]2(C)N=C(/C(C)=C3N=C(/C=C4N=C1[C@@H](CCC(N)=O)C\4(C)C)[C@@H](CCC(N)=O)[C@]\3(C)CC(N)=O)[C@@H](CCC(N)=O)[C@]2(C)CC(N)=O.[CH3-].[Co+3]` [Methylcobalamin, methylcobalamin]: the “treatment of mouth ulcers” value is “superior”.

These data come from patent US20090104128A1, “Denture adhesive compositions with anti-ucler agents” (Orahealth Corporation, priority 2007, published 2009).
